Reference: patent publication US20120003156A1, “METHODS FOR TREATING NEOPLASIA BY INHIBITING LACTATE DEHYDROGENASE AND/OR NICOTINAMIDE PHOSPHORIBOSYLTRANSFERASE” (The Johns Hopkins University, priority 2008, published 2012)
Entries after “also recorded” stand apart in the source; their conditions may differ.

Experiments:
[1] = Side effects, hematology and blood chemistry in treated animals
P493 cells [2] = assay: NADH/NAD+ ratio colorimetric assay; type: cell-based, human; settings: 9 μM FX11, 24 hours
Method: The NADH/NAD^+ ratios were assayed using EnzyChrom™ NADH/NAD^+ colorimetric Assay Kit, from BioAssay Systems. This assay is based on an enzyme-catalyzed kinetic reaction where a tetrazolium dye 3-[4,5-dimethylthiazol-2-yl]-2,5-diphenyltetrazolium bromide (MTT) is reduced by NADH in the presence of phenazine methosulfate (PMS). The intensity of the reduced product color, measured at 565 nm, is proportionate to the NADH/NAD^+ concentration in the sample. […] After washing with cold PBS, cells were homogenized in 100 μl of NAD^+ or NADH extraction buffer. Following heat extract at 60° C. for 5 minutes, the assay was performed according to the manufacturer's instructions.

[3] = test system: P493 human lymphoma B cells; assay: Cell population growth, trypan blue live cell count; type: cell-based
Method: (§1) P493 human lymphoma B cells were maintained in RPMI 1640 with 10% fetal bovine serum (FBS) and 1% penicillin-streptomycin. P198 human pancreatic cancer cells; RCC4, RCC4-VHL human renal carcinoma cells; MCF-7 and MDA-MB-453 breast cancer cells were maintained in high glucose (4.5 mg/ml) DMEM with 10% FBS and 1% penicillin-streptomycin. Non-hypoxic cells (20% O2) were maintained at 37° C. in a 5% CO2, 95% in an air incubator. Hypoxic cells (1% O2) were maintained in a controlled atmosphere chamber (PLAS-LABS, Lansing, Mich.) with a gas mixture containing 1% O2, 5% CO2, and 94% N2 at 37° C. for the indicated time. Bright live cells were counted daily in a hemacytometer using trypan blue dye to exclude dead cells. All cells were grown at a concentration of 10^5 cells/ml. All drugs treatment began at day 0.
siRNAs targeting human LDHA (ON-TARGETplus SMARTpool) were purchased from Dharmacon Research Inc. Targeting sequences for LDHA were a pool of the following four target sequences: sequence 1, […]; sequence 2, […]; sequence 3, […]; sequence 4, […]. Accordingly, one of skill in the art would recognize the siRNA sequences corresponding to these targets. For P493 human lymphoma B cells, transfection of siRNAs was performed using an Amaxa Nucleotransfection device according to the manufacturer's instructions. Briefly, 2 μg siLDHA ON-TARGETplus SMARTpool or ON-TARGETplus Non-targeting Pool (Dharmacon Research Inc.) were transfected into 2×10^6 cells at 0 hours. […]. The remaining cells were harvested for immunoblot analysis. For P198 human pancreatic cancer cells, transfection of siRNAs was performed using X-tremeGENE siRNA Transfection Reagent (Roche) according to the manufacturer's instructions.

LDHA = LDHA (Homo sapiens, UniProt P00338); assay: Affinity chromatography of LDHA on Sepharose-immobilized FX11 or E; type: binding; settings: P493 cell lysate; elution with 1 mM NADH
Method: FX11 and E molecules which contain carboxyl groups were coupled to immobilized diaminodipropylamine (DADPA) resins according to the manufacturer's instructions (Pierce). […] An equal amount of cell lysate was loaded onto these beads and eluted with 1 mM NADH after washing with 6 column volumes of high salt (1 M NaCl). LDHA activity was performed from the eluates to assess the binding affinity of the molecules with LDHA.

[4] = test system: Ramos Burkitt lymphoma cells; assay: Cell population growth; type: cell-based, human
[5] = test system: human pancreatic cell line P10; assay: Cell growth; type: cell-based
MCF-7 cells = assay: Cell population growth; type: cell-based, human; settings: dose-response
Method: as §1

RCC4-VHL cells = assay: Cell population growth; type: cell-based, human; settings: dose-response
Method: as §1

RCC4 cells = assay: Cell population growth; type: cell-based, human; settings: dose-response
Method: as §1

MDA-MB-453 cells = assay: Cell population growth; type: cell-based, human; settings: dose-response
Method: as §1

P493 cells [6] = assay: Lactate production and glucose utilization, ABL700 Radiometer analyzer; type: cell-based, human
Method: Lactate production was measured by the ABL700 Radiometer analyzer according to the manufacturer's instructions. 10^5 cells were grown at 37° C. in a 5% CO2, 95% air incubator and treated with 9 μM FX11 or 0.5 nM FK866 for 24 hours.

[7] = Expected initial serum level after IP injection; type: in vivo; settings: 42 μg IP; assuming uniform and immediate distribution in the vascular system
Method: Although the renewed interest in the Warburg effect is accompanied by a greater understanding of its molecular underpinnings, targeting it for therapeutic purposes has become a major challenge. […] Of note, primary human lymphomas have been documented to have elevated LDHA expression particularly in hypoxic regions. […] A desired FX11 dose of 42 μg for daily intraperitoneal (IP) injection was calculated. An initial serum level of ˜100 μM was expected, assuming a uniform and immediate distribution in the vascular system without accounting for the drug half-life or drug metabolism.

P493 cells [8] = assay: ATP levels, luciferin-luciferase-based assay; type: cell-based, human; settings: 9 μM FX11 or 0.5 nM FK866, 20 hours
Method: P493 cells were treated with 9 μM FX11 or 0.5 nM FK866 for 20 hours and counted. ATP levels were determined by luciferin-luciferase-based assay (Promega) on aliquots containing equal number of cells according to standard protocol.

P493 cells [9] = assay: ROS measurement by DCFDA flow cytometry; type: cell-based, human; settings: 9 μM FX11 or FK866, 24 hours
Method: The measurement of intracellular ROS production was measured by staining cells with 5-(and-6)-carboxy-2′,7′-dichlorodihydrofluorescein diacetate (carboxy-H2DCFDA; Molecular Probes) according to the manufacturer's instructions. 10^5 cells/ml were treated with 9 μM FX11 or FK866 for 24 hours. Stained cells were analyzed in FACScan flow cytometers (BD Bioscience).

[10] = target: purified human liver LDHA (Homo sapiens, UniProt P00338); assay: Determination of Ki and enzyme kinetics of LDHA; settings: NADH as substrate; Lineweaver-Burk plots
Method: (§2) The reaction velocity of purified human LDHA or GAPDH was determined by a decrease or increase in absorbance at 340 nm of NADH, respectively. […] The GADPH activity was assessed using the protocol described in Worthington Enzyme Manual: http://www.worthington-biochem.com/GAPD/assay.html with varying concentrations of NAD^+. Ki values were determined from double-reciprocal plots by linear regression analysis using SigmaPlot Enzyme Kinetic software.

GAPDH = GAPDH (Homo sapiens, UniProt P04406); assay: GAPDH activity and Ki; type: biochemical
Method: as §2

P493 cells [11] = assay: Conversion of 13C-glucose to 13C-lactate; type: cell-based, human
Method: In addition to oxidative stress induced by inhibition of LDHA, it was determined how FX11 affects cellular energy metabolism. […].

AMP kinase (AMPK) = assay: Immunoblot of phospho-AMPK; type: cell-based, human; settings: 20 hours of exposure

GAPDH, sequence (P04406 whole entry): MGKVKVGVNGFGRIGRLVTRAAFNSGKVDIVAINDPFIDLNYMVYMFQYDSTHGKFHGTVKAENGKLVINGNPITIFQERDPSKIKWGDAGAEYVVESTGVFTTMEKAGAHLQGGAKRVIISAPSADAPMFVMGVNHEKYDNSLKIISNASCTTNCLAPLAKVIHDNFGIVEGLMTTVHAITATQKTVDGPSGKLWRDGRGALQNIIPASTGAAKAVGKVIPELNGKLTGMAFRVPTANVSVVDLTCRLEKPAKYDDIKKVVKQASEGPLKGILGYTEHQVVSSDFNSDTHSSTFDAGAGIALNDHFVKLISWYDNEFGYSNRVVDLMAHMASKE

CCCc1c(O)c(O)c(C(=O)O)c2cc(Cc3ccccc3)c(C)cc12 [FX11, 2,3-dihydroxy-6-methyl-7-(phenylmethyl)-4-propylnaphthalene-1-carboxylic acid]
kidney (BUN, creatinine) or liver (aspartate aminotransferase, alanine aminotransferase, alkaline phosphatase) toxicity by blood chemistries ([1]; doses that affected tumor growth in vivo): did not reveal any evidence
hematology (cytopenia) ([1]; single agent, five animals studied): no cytopenia
body weight ([1]; treated animals): did not lose weight
lethargy, ability to eat and drink ([1]; treated animals): no lethargy or the inability to eat and drink
NADH/NAD+ ratio (P493 cells [2]): increase
growth inhibition at 1% O2 compared with normoxia ([3]; 9 μM FX11): increased
proliferative rate of P493 cells with siRNA knock-down of LDHA ([3]; 9 μM FX11): not further slowed
inhibition of P493 cells in the absence of glucose ([3]; glucose-depleted medium): could not inhibit P493 cells further
inhibition of P493 cells, dose-response ([3]; normoxia (20% O2) and hypoxia (1% O2)): dose-dependent manner that was augmented in hypoxia
proliferation of P493 cells ([3]; single agent): diminished proliferation
LDHA activity eluted from affinity beads relative to beads with immobilized E (LDHA): 4 fold
cell population growth inhibition [4]: sensitive to FX11 inhibition in a manner that is diminished by glucose withdrawal; also recorded: dose-dependent manner
growth inhibition [5]: dose-dependent manner
cell population growth / sensitivity (MCF-7 cells): inhibited cell population growth; also recorded: more sensitive
cell population growth (RCC4-VHL cells): inhibited cell population growth
cell population growth / sensitivity (RCC4 cells): inhibited cell population growth; also recorded: more sensitive
cell population growth (MDA-MB-453 cells): inhibited cell population growth
cellular production of lactate (P493 cells [6]; 9 μM FX11, 24 hours): significantly diminished
glucose utilization (P493 cells [6]; FX11 treatment for 24 hours): reduction of glucose utilization
initial serum level [7]: ~100 µM
ATP levels (P493 cells [8]): decrease in ATP levels
ROS production (P493 cells [9]): increased
mode of inhibition of LDHA [10]: competitive inhibitors; also recorded: competitive inhibitor of NADH
GAPDH activity (GAPDH; 74 μM): not inhibited
Ki (GAPDH; GAPDH, Michaelis-Menten kinetics, estimated): > 300 µM
13C-glutamate (P493 cells [11]): increase
conversion of 13C-glucose to 13C-lactate (P493 cells [11]): reduced
AMP kinase (AMPK) activation (AMP kinase (AMPK)): activation
